Experimental data as given in paper PMC9825622, “Leveraging molecular structure and bioactivity with chemical language models for de novo drug design” (Nature Communications, 2023).

What was measured:
[1] = target: T1, PI3Kγ (Homo sapiens, UniProt P48736); test: KINOMEscan biochemical kinase binding assay (Kd determination); conditions: for experimentally determined binding constant Kd: Fig. 4, commercially available compounds, absence of a value (−) = no observed binding; for Kd: average of N = 2 independent experiments
T1 construct: purchased Eurofins Discovery (KINOMEscan, fee-for-service)
T1 sequence (P48736 whole entry): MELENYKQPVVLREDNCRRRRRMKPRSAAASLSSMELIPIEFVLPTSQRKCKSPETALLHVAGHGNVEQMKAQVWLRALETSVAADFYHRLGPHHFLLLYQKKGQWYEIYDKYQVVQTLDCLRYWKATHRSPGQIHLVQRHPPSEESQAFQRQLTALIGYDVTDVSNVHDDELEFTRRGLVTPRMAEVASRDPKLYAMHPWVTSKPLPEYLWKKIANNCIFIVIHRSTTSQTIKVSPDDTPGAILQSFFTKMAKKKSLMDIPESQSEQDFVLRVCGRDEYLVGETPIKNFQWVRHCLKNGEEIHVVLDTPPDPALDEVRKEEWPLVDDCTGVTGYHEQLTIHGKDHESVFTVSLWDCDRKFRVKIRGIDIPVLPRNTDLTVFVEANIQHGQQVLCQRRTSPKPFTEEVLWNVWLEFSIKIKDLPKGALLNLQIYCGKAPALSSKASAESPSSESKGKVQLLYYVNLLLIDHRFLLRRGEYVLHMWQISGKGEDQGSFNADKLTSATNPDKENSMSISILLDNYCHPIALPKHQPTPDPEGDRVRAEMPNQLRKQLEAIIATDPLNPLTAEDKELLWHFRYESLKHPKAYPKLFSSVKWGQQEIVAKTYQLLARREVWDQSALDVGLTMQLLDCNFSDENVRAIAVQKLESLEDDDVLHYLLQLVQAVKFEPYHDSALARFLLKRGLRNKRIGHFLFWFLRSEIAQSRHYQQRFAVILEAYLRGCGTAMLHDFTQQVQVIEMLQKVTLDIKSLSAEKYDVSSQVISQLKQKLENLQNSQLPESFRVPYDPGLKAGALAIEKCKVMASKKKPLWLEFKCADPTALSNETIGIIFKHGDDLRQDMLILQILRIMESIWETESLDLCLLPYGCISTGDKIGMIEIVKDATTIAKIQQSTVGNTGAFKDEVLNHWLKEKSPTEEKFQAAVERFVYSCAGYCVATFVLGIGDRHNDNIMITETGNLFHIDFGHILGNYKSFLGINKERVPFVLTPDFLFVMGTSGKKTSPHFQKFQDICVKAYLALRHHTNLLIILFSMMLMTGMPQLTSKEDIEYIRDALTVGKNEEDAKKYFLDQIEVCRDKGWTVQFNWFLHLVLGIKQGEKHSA
Procedure: PI3Kγ binding assays were performed by Eurofins Discovery (https://www.eurofinsdiscoveryservices.com) on a fee-for-service basis. KINOMEscan™ was used to determine the dissociation constant Kd. […] Competition of the test compound with the immobilized ligand was measured via quantitative PCR (qPCR) of the DNA tag of DNA-tagged kinase. An 11-point three-fold serial dilution of each test compound was prepared in 100% DMSO at 100× final test concentration and subsequently diluted to 1× in the assay (final DMSO concentration = 1%). Dissociation constants were estimated with a standard dose-response curve using the Hill equation (Eq. 4)[71]:4 Response=Background+Signal−Background/1+KdHillslope/Dose^HillSlope, where the Hill slope was set to −1. Curves were fitted using a nonlinear least square fit with the Levenberg–Marquardt algorithm[72],[73].

[2] = test system: HD-MB03 medulloblastoma cells; test: CellTiter-Glo cell viability/proliferation assay; type: cell-based, human; conditions: for IC50: Homo sapiens, HD-MB03, 72 h, 72 h exposure, medium supplemented with FBS, read-out: IC50 (CellTiter-Glo viability, best-fit)
Procedure: HD-MBO3 Group 3 medulloblastoma cells were cultured in RPMI medium supplemented with 10% fetal bovine serum (FBS, both from Sigma-Aldrich, St. Louis, USA), 1% Penicillin-Streptomycin, and 1% GlutaMAX (both from Gibco/Thermo Fisher Scientific, Waltham, USA). The cells were maintained at 37 °C in a humidified atmosphere containing 5% CO2. […] DMSO was used as solvent control in all assays.
Cell viability was determined using CellTiter-Glo® 2.0 Cell Viability Assay (G9242, Promega, Madison, USA). About 500 cells per 20 μl were seeded in a flat bottom 384-well plate (781098, Greiner bio-one, Kremsmünster, Austria). Increasing concentrations of compounds were deposited on cells using an HP Digital Drug Dispenser (Hewlett-Packard, Palo Alto, USA) with DMSO total volume normalization. After 72 h, the CellTiter-Glo reagent was added (volume/volume) following the manufacturer’s instructions. Luminescence representing the number of viable cells was quantified with a Cytation 3 imaging reader (BioTek, Winooski, USA). […] Prism 9 software (GraphPad Software, San Diego, CA, USA) was used to calculate best-fit values of inhibitor vs. normalized response and to predict IC50.

[3] = test system: PI3Kα; conditions: cited from earlier work
[4] = test system: PI3Kδ; conditions: cited from earlier work

For `COc1ccc(-c2cc(C(F)(F)F)n3ncc(C#N)c3n2)cc1OC` [Compound 2], the “PI3Kγ activity in vitro (biochemical assay), in words” value [1] was “inactive in vitro” and the “experimentally determined binding constant Kd” value (“experimentally” below) [1] was “no observed binding”.
For `COc1ccc(-c2nc(-c3ccc(F)cc3)no2)cc1OC` [Compound 3], the “experimentally” value [1] was “no observed binding”.
For `COc1ccc(-c2cc(C(F)F)n3ncc(C#N)c3n2)cc1OC` [Compound 4], the “PI3Kγ activity in vitro (biochemical assay), in words” value [1] was “inactive in vitro” and the “experimentally” value [1] was “no observed binding”.
In the case of `COc1ccc(-c2nnc(C(C)C)s2)cc1OC` [Compound 5], the “experimentally” value [1] is reported as “no observed binding”.
With `COc1ccc(-c2cnc(N)cc2C)cc1OC` [Compound 6] the “experimentally” value [1] was “no observed binding”.
For `COc1ccc(-c2cc(CCl)no2)cc1OC` [Compound 7], the “experimentally” value [1] was “no observed binding”.
In the case of `COc1ccc(C(=O)Nc2ccc3ccccc3c2)cc1OC` [Compound 8], the “experimentally” value [1] is reported as “no observed binding”.
With `COc1ccc(-c2nc(-c3ccc(F)cc3)c(-c3ccc(F)cc3)[nH]2)cc1O` [Compound 9] the “experimentally” value [1] was “no observed binding”.
In the case of `COc1ccc(Nc2nc(-c3ccc(Br)cc3)nc3ccccc23)cc1OC` [Compound 10], the “experimentally” value [1] is reported as “no observed binding”.
With `COc1ccc(-c2nnc(CCl)o2)cc1OC` [Compound 11] the “experimentally” value [1] was “no observed binding”.
For `COc1ccc(-c2nc(CN)no2)cc1OC` [Compound 12], the “experimentally” value [1] was “no observed binding”.
With `COc1ccc(-c2noc(-c3ccc(O)cc3)n2)cc1OC` [Compound 13] the “experimentally” value [1] was “no observed binding”.
For `COc1ccc(-c2nc(CCl)c(C)o2)cc1OC` [Compound 14], the “experimentally” value [1] was “no observed binding”.
With `COc1ccc(Nc2ncccc2[N+](=O)[O-])cc1OC` [Compound 15] the “experimentally” value [1] was “no observed binding”.
With `COc1ccc(-c2cnoc2-c2cc(OC)c(OC)c(OC)c2)cc1O` [Compound 16] the “experimentally” value [1] was “no observed binding”.
For `CC(C)n1nc(-c2cc(Cl)c(O)c(C3CC3)c2)c2c(N)ncnc21` [Compound 20], the Kd [1] was 120 nM.
For `CC(C)n1nc(-c2cc(C3CC3)c(O)c(C3CC3)c2)c2c(N)ncnc21` [Compound 21], the Kd [1] was 290 nM.
In the case of `CC(C)n1nc(-c2cc(Cl)c(O)c(Cl)c2)c2c(N)ncnc21` [Compound 22], the Kd [1] is reported as 13 nM, the “effect on viability at 100 nM” value ([2]; 100 nM concentration) is reported as “neither 18 nor 22 caused a significant reduction in viability” and the IC50 [2] is reported as 188 nM.
For `COc1c(OCCCN2CCOCC2)ccc2c1N=C(NC(=O)c1cnc(N)nc1)N1CCN=C21` [copanlisib, Copanlisib], the “inhibitory activity against PI3Kα” value [3] is given as “sub-nanomolar”, the IC50 [2] is given as 19.4 nM and the “inhibitory activity against PI3Kδ” value [4] is given as “sub-nanomolar”.
